According to PubChem BioAssay (NCI):
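Following 48 hours of exposure in 96-well plates, responses at five concentrations were used to interpolate endpoints linearly. GI50 is the concentration that inhibits growth by half. TGI denotes the concentration required for complete inhibition of growth.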

Assays:
Test in all cases: NCI-60 cell line screen, 48 h
M14 melanoma = test system: M14 melanoma
K-562 leukemia = test system: K-562 leukemia
HL-60(TB) leukemia = test system: HL-60(TB) leukemia
HS 578T breast = test system: HS 578T breast
SF-295 CNS = test system: SF-295 CNS
MOLT-4 leukemia = test system: MOLT-4 leukemia
PC-3 prostate = test system: PC-3 prostate
MDA-MB-435 = test system: MDA-MB-435
DMS 114 small cell lung = test system: DMS 114 small cell lung
DMS 273 small cell lung = test system: DMS 273 small cell lung

SMILES | GI50 (M14 melanoma) [µM] | TGI (M14 melanoma) [µM] | GI50 (K-562 leukemia) [µM] | TGI (K-562 leukemia) [µM] | GI50 (HL-60(TB) leukemia) [µM] | TGI (HL-60(TB) leukemia) [µM] | GI50 (HS 578T breast) [µM] | TGI (HS 578T breast) [µM] | GI50 (SF-295 CNS) [µM] | TGI (SF-295 CNS) [µM] | GI50 (MOLT-4 leukemia) [µM] | TGI (MOLT-4 leukemia) [µM] | GI50 (PC-3 prostate) [µM] | TGI (PC-3 prostate) [µM] | GI50 (MDA-MB-435) [µM] | TGI (MDA-MB-435) [µM] | TGI (DMS 114 small cell lung) [µM] | TGI (DMS 273 small cell lung) [µM]
Cc1cc(NCCCCNc2ccnc3cc(Cl)ccc23)nc(Nc2ccc(C(=O)N3CCCC3)cc2)n1 | 1.96 | 3.87 | 0.306 | 2.33 | 0.202 | 2.27 | 1.85 | 4.74 | 1.78 | 3.64 | 2.81 | 11.6 | 3.79 | 10.9 | 1.79 | 3.35 |  | 
COc1ccc(NC(=O)COC(=O)c2cccc3c(=O)c4ccccc4[nH]c23)cc1 |  | 90.7 |  | 37.2 |  | 25.8 |  |  |  | 40.2 |  | 33.7 |  |  |  |  | 37.8 | 
CN1C(=O)c2cc([N+](=O)[O-])ccc2[C@H]2C(=O)c3cc4c(cc3[C@H]21)OCO4 | < 0.01 | 0.037 | 0.199 | > 100 | 0.215 | > 100 | 0.93 | > 100 | < 0.01 | 1.01 | 0.145 | > 100 | 0.521 | 63 | 0.167 | 2.72 |  | 
O=C1Nc2ccccc2/C1=C/c1ccccc1 |  | 30.6 |  | > 100 |  | 43.5 |  | 91.8 |  | 36.1 |  | 57.5 |  | 31.1 |  | 33.2 |  | 
Cc1ccc(NC(=O)COC(=O)c2cccc3c(=O)c4ccccc4[nH]c23)cc1 |  | > 100 |  | > 100 |  | > 100 |  |  |  | > 100 |  | > 100 |  |  |  |  | > 100 | 94.9
S=P1(c2ccccc2)Nc2ccc(Cl)cc2N1 (centres undefined) |  | 56.9 |  | > 100 |  | 57.5 |  |  |  | > 100 |  | > 100 |  |  |  |  | > 100 | > 100
O=c1oc2ccc(F)cc2c(=O)n1-c1ccc(Cl)cc1F | 0.594 | 4.55 | 0.509 | > 100 | 0.578 | 2.73 | 0.572 | 5.77 | 1.82 | 3.66 | 2 | 5.27 | 1.5 | 6.32 | 0.674 | 5.48 |  | 
COC(=O)c1cc2c3ccccc3n3c(=O)c4cc5cc(OC)c(N(S(=O)(=O)c6ccc(C)cc6)S(=O)(=O)c6ccc(C)cc6)cc5nc4c(n1)c23 | 32.7 | > 100 | 47.2 | > 100 | 74.7 | > 100 | 4.97 | 54.2 | 5.15 | 21.7 | 35.2 | > 100 | > 100 | > 100 | > 100 | > 100 |  | 
O=C(Nc1cccnc1)c1cccc([N+](=O)[O-])c1 | > 100 | > 100 | > 100 | > 100 | > 100 | > 100 | > 100 | > 100 | > 100 | > 100 | > 100 | > 100 | > 100 | > 100 | > 100 | > 100 |  | 
CC(C)=CC(O)C/C(C)=C/CC/C(C)=C/CCC1(C)C(CCCO)/C(=C(/C)C=O)CCC1(C)O (centres undefined) |  | 60.9 |  | 7.94 |  | 43.7 |  | > 100 |  | > 100 |  | 83.2 |  | > 100 |  | > 100 |  | 
O=C1Nc2ccccc2/C1=C/c1cn(C(=O)c2c(Cl)cccc2Cl)c2ccccc12 | 2.34 | 8.19 | 3.14 | > 100 | 2.46 | 11 | 2.17 | 8.98 | 2.24 | 9.3 | 2.82 | > 100 | 2.39 | 11.2 | 2.24 | 7.1 |  | 
O=c1[nH]ccc2nc(-c3ccc(CN4CCC(c5nc(-c6ccccn6)n[nH]5)CC4)cc3)c(-c3ccccc3)cc12 | 22.2 | > 100 | 18.9 | > 100 | 23.6 | > 86.7 | 0.592 | 16.5 | 1.11 | 19.9 | 0.364 | 4.67 | 0.153 | > 100 | 17.4 | > 100 |  | 
COc1ccc(Cn2cnc3cc(C(=O)Nc4cccc5ccccc45)ccc32)c(OC)c1 | 0.0275 |  | 0.0344 | > 100 | 0.0319 | 0.145 | 0.0351 | > 100 | 0.0341 | > 100 | 0.0621 | > 100 | 0.051 | > 100 | 0.0173 | 0.0358 |  | 
CC1C=CC(C)C2(O)C(=O)NC(O)C12 (centres undefined) |  | > 100 |  | > 100 |  | > 100 |  |  |  |  |  | > 100 |  |  |  |  | > 100 | > 100
Cn1ccnc1C(=O)/C=C/c1ccc(C(=O)Nc2ccccc2O)cc1 | 1.82 | 4.28 | 0.939 | 34 | 2.13 | 5.73 | 2.95 | 15.9 | 3.53 | 12.1 | 2.38 | 8.18 | 1.89 | 4.8 | 2.22 | 4.85 |  | 
CN(C)c1ccc(/C=C/c2ccnc3ccccc23)cc1N |  | 25.1 |  | 23.6 |  | 13.9 |  | 61.3 |  | 27.7 |  | 25.5 |  | 22 |  | 8.06 |  | 
